pEC50: −log10 of the molar value.
Experiments:
Monocyte = test: Cytotoxicity against human PBMC-derived monocytes assessed as CD3-negative CD14 positive monocyte viability at 12.5 uM incubated for 16 hrs by Zombie-NIR staining-based flow cytometry relative to control; type: functional
Homo sapiens = species: Homo sapiens; type: cell-based
[1] = Cytotoxicity against human PBMC-derived CD3-positive T cells assessed as effect on cell viability at 12.5 uM incubated for 16 hrs by Zombie-NIR staining-based flow cytometry
[2] = biological target: T1, Stimulator of interferon genes protein (Homo sapiens, UniProt Q86WV6); test: Activation of recombinant human wild-type STING expressed in 293T cells incubated for 7 hrs in absence of digitonin A by bright Glo-luciferase reporter gene assay; type: cell-based
T1 sequence (Q86WV6 whole entry): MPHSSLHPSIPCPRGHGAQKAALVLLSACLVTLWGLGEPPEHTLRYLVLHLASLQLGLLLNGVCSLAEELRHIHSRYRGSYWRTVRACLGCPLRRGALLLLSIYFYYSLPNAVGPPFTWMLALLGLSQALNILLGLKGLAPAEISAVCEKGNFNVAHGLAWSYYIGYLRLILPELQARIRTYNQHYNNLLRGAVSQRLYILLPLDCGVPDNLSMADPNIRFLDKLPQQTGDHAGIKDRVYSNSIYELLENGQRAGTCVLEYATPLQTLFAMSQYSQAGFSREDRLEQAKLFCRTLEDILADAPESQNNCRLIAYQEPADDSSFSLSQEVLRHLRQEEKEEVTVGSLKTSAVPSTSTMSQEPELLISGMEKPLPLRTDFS

[3] = biological target: Stimulator of interferon genes protein (Homo sapiens, UniProt Q86WV6, R293Q); test: Activation of recombinant human STING haplotype R293Q mutant expressed in 293T cells measured after 30 mins in presence of digitonin A by bright Glo-luciferase reporter gene assay; type: cell-based
Stimulator of interferon genes protein (Homo sapiens, UniProt Q86WV6, R293Q), sequence (Q86WV6 whole entry R293Q): as the sequence (Q86WV6 whole entry) above, with R293Q counted along it

[4] = biological target: Stimulator of interferon genes protein (Homo sapiens, UniProt Q86WV6, G230A/R293Q); test: Activation of recombinant human STING haplotype G230A/R293Q mutant expressed in 293T cells measured after 30 mins in presence of digitonin A by bright Glo-luciferase reporter gene assay; type: cell-based
Stimulator of interferon genes protein (Homo sapiens, UniProt Q86WV6, G230A/R293Q), sequence (Q86WV6 whole entry G230A/R293Q): as the sequence (Q86WV6 whole entry) above, with G230A, R293Q counted along it

[5] = biological target: T1, Stimulator of interferon genes protein; test: Activation of recombinant human wild-type STING expressed in 293T cells measured after 30 mins in presence of digitonin A by bright Glo-luciferase reporter gene assay; type: cell-based
[6] = biological target: Stimulator of interferon genes protein (Homo sapiens, UniProt Q86WV6, G230A/R293Q/R71H); test: Activation of recombinant human STING haplotype R71H/G230A/R293Q mutant expressed in 293T cells measured after 30 mins in presence of digitonin A by bright Glo-luciferase reporter gene assay; type: cell-based
Stimulator of interferon genes protein (Homo sapiens, UniProt Q86WV6, G230A/R293Q/R71H), sequence (Q86WV6 whole entry R71H/G230A/R293Q): as the sequence (Q86WV6 whole entry) above, with R71H, G230A, R293Q counted along it

[7] = biological target: T1, Stimulator of interferon genes protein
Description: Binding affinity to recombinant human wild-type STING assessed as change in melting temperature at 150 uM by SYPRO orange dye based differential scanning fluorimetric method

cells = conditions: Homo sapiens, HEK-293T, 0.5 h
Description: Activation of recombinant human STING haplotype R232H mutant expressed in 293T cells measured after 30 mins in presence of digitonin A by bright Glo-luciferase reporter gene assay

| SMILES | Activity (Monocyte) | max activation (Homo sapiens) | Activity [1] | pEC50 [2] | pEC50 [3] | pEC50 [4] | pEC50 [5] | pEC50 [6] | ΔTm [7] | pEC50 (cells) |
| --- | --- | --- | --- | --- | --- | --- | --- | --- | --- | --- |
| Nc1nc2c(ccn2[C@@H]2O[C@@H]3COP(=O)(O)O[C@H]4[C@@H](O)[C@H](n5cnc6c(N)ncnc65)O[C@@H]4COP(=O)(O)O[C@@H]2[C@@H]3O)c(=O)[nH]1 | 0.9% | < 30% | Non-Toxic | 4.39 | 5.96 | 7.22 | 7.40 | 7.00 | 6.6 °C | 5.46 |
| Nc1nc2c([C@@H]3O[C@@H]4COP(=O)(O)O[C@H]5[C@@H](O)[C@H](n6cnc7c(N)ncnc76)O[C@@H]5COP(=O)(O)O[C@@H]3[C@@H]4O)scc2c(=O)[nH]1 | 0.9% | < 30% | Non-Toxic | 3.62 | 5.52 | 7.30 | 6.96 | 6.60 | 2.8 °C | 5.22 |
| Nc1nc(N)c2ncn([C@@H]3O[C@@H]4COP(=O)(O)O[C@@H]5[C@H](O)[C@@H](COP(=O)(O)O[C@H]4[C@H]3F)O[C@H]5n3cnc4c(=O)[nH]c(N)nc43)c2n1 | 2.5% | < 30% | Non-Toxic | 4.56 | 6.89 | 7.52 | 7.70 | 7.40 | 14.4 °C | 6.77 |
| CSc1nc(N)nc2c1ncn2[C@@H]1O[C@@H]2COP(=O)(O)O[C@@H]3[C@H](O)[C@@H](COP(=O)(O)O[C@H]2[C@H]1O)O[C@H]3n1cnc2c(=O)[nH]c(N)nc21 | 4.8% | < 30% | Non-Toxic | < 3.52 | 5.07 | 6.62 | 6.52 | 6.32 | 3.5 °C | 4.56 |
| Cn1c(N)nc2c(ncn2[C@@H]2O[C@@H]3COP(=O)(O)O[C@H]4[C@@H](O)[C@H](n5cnc6c(N)ncnc65)O[C@@H]4COP(=O)(O)O[C@@H]2[C@@H]3O)c1=O | 2% | < 30% | Non-Toxic | 4.40 | 6.11 | 7.40 | 7.70 | 7.40 | 9 °C | 6.05 |
| CSc1ncnc2c1ncn2[C@@H]1O[C@@H]2COP(=O)(O)O[C@@H]3[C@H](O)[C@@H](COP(=O)(O)O[C@H]2[C@H]1O)O[C@H]3n1cnc2c(=O)[nH]c(N)nc21 | 0.4% | < 30% | Non-Toxic | 4.88 | 5.91 | 7.22 | 8.00 | 7.22 | 8.3 °C | 5.64 |
| CNc1ncnc2c1ncn2[C@@H]1O[C@@H]2COP(=O)(O)O[C@@H]3[C@H](O)[C@@H](COP(=O)(O)O[C@H]2[C@H]1O)O[C@H]3n1cnc2c(=O)[nH]c(N)nc21 | 0.8% | < 30% | Non-Toxic | 4.20 | 5.92 | 7.22 | 7.70 | 7.22 | 9 °C | 6.15 |
| Nc1nc2c(ncn2[C@@H]2O[C@@H]3COP(=O)(O)O[C@H]4[C@@H](O)[C@H](n5nnc6c(N)ncnc65)O[C@@H]4COP(=O)(O)O[C@@H]2[C@@H]3O)c(=O)[nH]1 | 2.3% | < 30% | Non-Toxic | < 3.52 | 5.24 | 6.68 | 6.64 | 6.51 | 3.9 °C | 4.47 |
| NC(=O)c1ncn([C@@H]2O[C@@H]3COP(=O)(O)O[C@H]4[C@@H](O)[C@H](n5cnc6c(N)ncnc65)O[C@@H]4COP(=O)(O)O[C@@H]2[C@@H]3O)c1N | 87% | < 30% | Non-Toxic | < 3.52 | 4.33 | 6.38 | 6.08 | 6.40 | 0.6 °C | < 4.35 |
| Nc1nc2c(ncn2[C@@H]2O[C@@H]3COP(=O)(O)O[C@H]4[C@@H](O)[C@H](n5cnc6c(O)nc(O)nc65)O[C@@H]4COP(=O)(O)O[C@@H]2[C@@H]3O)c(=O)[nH]1 | 45% | < 30% | Non-Toxic | < 3.52 | 4.48 | 5.70 | 5.74 | 5.77 | 2.4 °C | 4.68 |
| Nc1nc2c(ncn2[C@@H]2O[C@@H]3COP(=O)(O)O[C@H]4[C@@H](O)[C@H](n5cnc6c(=O)[nH]cnc65)O[C@@H]4COP(=O)(O)O[C@@H]2[C@@H]3O)c(=O)[nH]1 | 17% | < 30% | Non-Toxic | 3.83 | 5.66 | 6.85 | 7.30 | 6.52 | 8.8 °C | 5.68 |
| Nc1nc2c(ncn2[C@@H]2O[C@@H]3COP(=O)(O)O[C@H]4[C@@H](N)[C@H](n5cnc6c(N)ncnc65)O[C@@H]4COP(=O)(O)O[C@@H]2[C@@H]3O)c(=O)[nH]1 | 3% | < 30% | Non-Toxic | 3.97 | 6.62 | 7.70 | 7.70 | 7.52 | 9.4 °C | 5.85 |
| Nc1ncc2ncn([C@@H]3O[C@@H]4COP(=O)(O)O[C@@H]5[C@H](O)[C@@H](COP(=O)(O)O[C@H]4[C@H]3O)O[C@H]5n3cnc4c(=O)[nH]c(N)nc43)c2n1 | 0.6% | < 30% | Non-Toxic | 4.27 | 6.15 | 7.40 | 7.70 | 7.40 | 9.2 °C | 5.80 |
| Nc1nc2c(ncn2[C@@H]2O[C@@H]3COP(=O)(O)O[C@H]4C[C@H](n5cnc6c(N)nc(Cl)nc65)O[C@@H]4COP(=O)(O)O[C@@H]2[C@@H]3O)c(=O)[nH]1 | 0.1% | < 30% | Non-Toxic | 4.24 | 6.02 | 7.05 | 7.15 | 7.10 | 9.5 °C | 5.33 |
| NC(=O)c1ncn([C@@H]2O[C@@H]3COP(=O)(O)O[C@@H]4[C@H](O)[C@@H](COP(=O)(O)O[C@H]3[C@H]2O)O[C@H]4n2cnc3c(=O)[nH]c(N)nc32)c1N | 83% | < 30% | Non-Toxic | < 3.52 | 4.34 | 6.68 | 6.49 | 6.68 | 1.7 °C | < 4.35 |
| Nc1nc2c(ncn2[C@@H]2O[C@@H]3COP(=O)(O)O[C@H]4[C@H](O)[C@H](n5cnc6c(N)nc(F)nc65)O[C@@H]4COP(=O)(O)O[C@@H]2[C@@H]3O)c(=O)[nH]1 | 3% | < 30% | Non-Toxic | 3.73 | 6.22 | 7.22 | 6.70 | 7.00 | 12.3 °C | 5.19 |

— ChEMBL document CHEMBL4334523, “Enzymatic Preparation of 2'-5',3'-5'-Cyclic Dinucleotides, Their Binding Properties to Stimulator of Interferon Genes Adaptor Protein, and Structure/Activity Correlations” (J Med Chem, 2019)
